Data published in patent publication US4652582A, “Antiinflammatory-2-halo-4,5-diarylpyrroles” (E. I. Du Pont de Nemours and Company, priority 1985, dated 1987).
Read-outs that look alike come from different tables or passages of the source.

Tested on: adjuvant-induced arthritis
Assay: Established adjuvant-induced arthritis in rats (paw volume, uninjected left hind paw)
Assay type: in vivo, Male Charles River Lewis rats
Settings: for % decrease from control paw volume at indicated daily dose: oral; for ED50: read-out: Adjuvant Arthritis ED50 (effective dose for 50% decrease from control paw volume)
Description: To detect and compare the antiinflammatory activities of compounds in this series and standard drugs, the adjuvant arthritis test was used. A good correlation exists with results in this assay and human efficacy. (Federation Proceedings, 32, 2, 1973 "Models Used for the Study and Therapy of Rheumatoid Arthritis"--Symposium of the American Society for Pharmacology and Experimental Therapeutics).
ESTABLISHED ADJUVANT-INDUCED ARTHRITIS IN RATS
Male Charles River Lewis rats (130-150 grams) are injected subcutaneously in the plantar area of the right hind paw with 0.1 ml of adjuvant (Difco heat-killed, lyophilized Mycobacterium butyricum suspended in mineral oil 5 mg/ml). 20 Non-arthritic controls are injected with mineral oil. The animals are held for 2 weeks to allow development of arthritis. Paw volumes (uninjected, left hind paw) are measured and the adjuvant injected rats are culled and distributed to treatment groups of 10 of equal disease severity. Non-arthritic controls are distributed to 2 groups of 10. The rats are given oral doses of compound or PVA-Acacia (Polyvinyl Alcohol 1%, Gum acacia, U.S.P. 5%, Methylparaben 0.5%) or 0.25% methocel (10 ml/kg) by gavage on that day and on the 6 following days. One day after the last dose, the paw volumes (uninjected, left hind paw) are measured using a Ugo Basile Volume Differential Meter Model 7101. Inhibiting effects are calculated by the following formula: [formula]
Dose-response regression lines of the percent decrease are plotted on semi-log paper by visual fit and the effective dose for 50% decrease from control paw volume (ED50) is determined by inspection.
Compounds from this series were also compared to indomethacin, phenylbutazone, ibuprofen, and aspirin.

[1] = rat, oral gavage daily, 7 days, paw volume one day after last dose

| Compound | ED50 [1] [mg/kg] | further results |
| --- | --- | --- |
| CC(C)(C)OC(=O)n1c(Br)cc(-c2ccc(F)cc2)c1-c1ccc(S(C)(=O)=O)cc1 [Example 1, 1-tert-Butyloxycarbonyl-2-bromo-4-(4-fluorophenyl)-5-(4-methylsulfonylphenyl)pyrrole] | – | % decrease from control paw volume at indicated daily dose (rat, daily dose 9 (mg/kg)): 44% |
| CC(=O)Oc1ccccc1C(=O)O [Aspirin, reference compound] | – | ED50 (Rattus norvegicus, po): 305 mg/kg |
| CS(=O)(=O)c1ccc(-c2[nH]c(Cl)c(Cl)c2-c2ccc(F)cc2)cc1 [Example 9] | 1.5 | – |
| CS(=O)(=O)c1ccc(-c2[nH]c(Cl)c(Br)c2-c2ccc(F)cc2)cc1 [Example 8, 2-Chloro-3-bromo-4-(4-fluorophenyl)-5-(4-methylsulfonylphenyl)-1H-pyrrole] | – | % decrease from control paw volume at indicated daily dose (rat, daily dose 3 (mg/kg)): 45% |
| CS(=O)(=O)c1ccc(-c2[nH]c(I)cc2-c2ccc(F)cc2)cc1 [Example 4, 2-Iodo-4-(4-fluorophenyl)-5-(4-methylsulfonylphenyl)-1H-pyrrole] | 22 | – |
| CS(=O)(=O)c1ccc(-c2[nH]c(Cl)cc2-c2ccc(F)cc2)cc1 [Example 3, 2-Chloro-4-(4-fluorophenyl)-5-(4-methylsulfonylphenyl)-1H-pyrrole] | 0.5 | – |
| CS(=O)(=O)c1ccc(-c2[nH]c(Br)c(Br)c2-c2ccc(F)cc2)cc1 [Example 6] | 0.88 | – |
| Cn1c(Br)cc(-c2ccc(F)cc2)c1-c1ccc(S(C)(=O)=O)cc1 [Example 5, 1-Methyl-2-bromo-4-(4-fluorophenyl)-5-(4-methylsulfonylphenyl)pyrrole] | 1.7 | – |
| COc1ccc2c(c1)c(CC(=O)O)c(C)n2C(=O)c1ccc(Cl)cc1 [Indomethacin, reference compound] | – | ED50 (Rattus norvegicus, po): 0.3 mg/kg |
| CC(C)Cc1ccc(C(C)C(=O)O)cc1 (stereo not drawn) [Ibuprofen, reference compound] | 100 | – |
| CS(=O)(=O)c1ccc(-c2[nH]c(Br)cc2-c2ccc(F)cc2)cc1 [Example 2, 2-Bromo-4-(4-fluorophenyl)-5-(4-methylsulfonylphenyl)-1H-pyrrole] | 1.1 | – |
| CCCCC1C(=O)N(c2ccccc2)N(c2ccccc2)C1=O [Phenylbutazone, reference compound] | 10 | – |
